Measured values: patent publication US10598667B2, “Functional illumination in living cells” (The Regents of the University of California, priority 2013, dated 2020)
pKd: −log10 of the molar value. Entries after “also recorded” stand apart in the source; their conditions may differ. Read-outs that look alike come from different tables or passages of the source. Bridges are numbered along the chain shown (N, C = ends). Where no end group is shown, it is not given here. [ ]: non-standard residue; d: D form. pY = N[C@@H](Cc1ccc(OP(=O)(O)O)cc1)C(=O)O

Tests used:
[1] = MG binding of peptide ligands from screening and their derivatives; design: key to MG binding: −: no binding; +: weak binding; ++: mild binding; +++: strong binding; ++++: very strong binding; conditions: for MG binding: 11 hour incubation with 5 μM MG in PBS buffer (pH 7.4); for MG binding of phosphorylated form (in words): phosphorylated but not unphosphorylated form
[2] = Sequential screening of PDMS affixed OBOC bead array with three dyes; format: binding; conditions: 100 μM dye in PBS, three dyes incubated sequentially on the same bead array
Method: Silicon Elastomer Base was mixed completely with Silicone Elastomer Curing Agent at ratio 10:1 in volume and the solution was kept in vacuum container for 15 to 20 minutes to eliminate the gas bubbles formed during the mixing process. After the removal of all residual bubbles, approximately 0.5-1 mL of PDMS solution was added into the bottom of a 60 mm culture dish. The dish was then spun on a single wafer spin processor (Laurell Technologies Corporation®, model WS-6505-6NPP/Lite) to evenly distribute the solution over the plates, at a speed of 4000 rpm for 30 s. A 5 μm layer of PDMS was formed on the bottom of dish and was cured at 80° C. for 5 min or at room temperature for 24 hrs to allow for beads immobilization. Knowing that the PDMS coating was about 5 μm thick and the radius of bead was around 45 μm, the percentage of free bead surface area was estimated by the formula of [1-2πrh/4πr^2]×100% (h=thickness of PDMS layer; r=radius of bead) to be approximately 95%. The library beads resuspended in 70% ethanol solution were first randomly placed on the surface of a glass plate that was 10% smaller than the dish used in the experiment. After the ethanol evaporated, a syringe needle was used to adjust the dry beads to evenly redistribute beads on the glass surface. Then the dish was inverted and the PDMS layer was pressed down onto the glass plate with beads. The library beads were embedded partly inside the PDMS layer.
Dye solutions were prepared in PBS to a 100 μM final concentration and 5 mL of each dye solution were added into the 60 mm dish with beads. Three dyes were tested sequentially. The dish was kept swirling at 60 rpm on the rotator. The dye binding was monitored for 90 minutes, and then the dye solution was removed from the dishes and PBS was added to rinse the beads on the bottom to remove the color dye. The PBS solution was changed every 30 min and the dish was always swirled as above. The beads color change was also observed and recorded at certain time interval during the whole wash process to collect data of color dissociation. Before adding the next dye solution, beads were washed with 70% ethanol to completely remove residual dye and were rinsed with PBS solution three times afterwards.
A representative positive bead for each color was selected for the color binding and dissociation study. A series of images were taken at different time points during the binding and washing process. From the images taken, regions of interest (ROI) with the same size were picked up from the color beads and colorless control beads. The value from the control bead was subtracted from the color bead to get quantitated color value for each single color bead. The measure of the color intensity for each color dye was performed using the Kodak Image Station 2000MM.
The PDMS affixed bead array was incubated with three different dyes sequentially. […] Eleven beads were selected for further analysis based on their characteristic binding profiles (FIG. 2). […] The amino acid sequences of the peptides bound to the beads were determined (Table 1).

[3] = Fluorescence titration of peptide in solution with MG, 2 mM Ca2+, 650 nm; format: binding
Method: Two peptides that can activate MG with or without calcium sensitivity were selected for further characterization. A solution form of the two peptides were synthesized and titrated with MG in the presence of 2 mM Ca^2+. Fluorescent signal at 650 nm was measured. […] Computational modeling confirmed stably folded structure of peptide 12 upon MG binding, preventing intramolecular motions of MG (FIG. 8B, FIG. 10A, B). […] The immobilized peptides on TentaGel beads were then titrated with an increasing amount of MG in the presence and absence of 2 mM Ca^2+. Fluorescent emission at 650 nm by each individual bead was measured. […] Computational modeling further confirmed that stably folded structure of peptide 2 only forms upon calcium binding (FIG. 11B).

[4] = Abltide motif OBOC library screening with MG before and after dephosphorylation; format: binding; conditions: for Post-dephos fluorescent signal: after dephosphorylation (treatment with 50% HF); for Pre-dephos fluorescent signal: before dephosphorylation; for ΔF/F: pre- vs post-dephosphorylation
Description: Screening for Library category 2 (Table 2) necessitates that the entire OBOC bead library array be scanned with and without MG or other dyes, before and after PTM. Here, we will use c-src PTK as an example. We have previously reported the use of OBOC combichem and radiosubstrate screening method to identify an efficient and specific peptide substrate (YIYGSFK; SEQ ID NO:35) for c-src PTK. […] Recently, we prepared YIY(P)GSFKKKXn (SEQ ID NO:216) libraries (X=all 19 L-amino acids except Cys, n=6-9) and screened them against MG. After 1 hr incubation, near-infra-red image of the entire immobilized library was captured. The bead library was then thoroughly washed, and dephosphorylated with 50% HF. Beads that strongly fluoresce near infra-red before dephosphorylation but fluoresce weakly (or none) after dephosphorylation were selected as candidate GESIs for c-src PTK (Table 6). Of these 8 peptides isolated from screening ˜300,000 beads, 3 has 1 Trp, and the remaining 5 have no Trp. Work is currently underway to characterize their substrate efficiency and specificity biochemically in a cell-free system and subsequently inside living cells. In principle, using various dyes and PKs to screen OBOC libraries, we should be able to develop several GESIs against several PKs that can be multiplexed with different dyes in living cells. We have developed GESIs for one serine/threonine kinase (PKA), and two tyrosine kinases (c-src and bcr-abl). Very recently, we have designed another library with a c-abl motif (“Abltide”): EAIY(P)AAPFAKKXn (SEQ ID NO:217).
After screening about one million beads with MG, we identified four peptides that greatly activate MG in phosphorylated but not dephosphorylated form (Table 7). Photomicrograph of LLT4bead is shown in FIG. 21, with a marked decrease in fluorescent signal (relative arbitrary level of 1930 to 93 and a ΔF/F value of 19; see right columns of Table 7) after dephosphorylation (treatment with 50% HF). High consensus was observed. All 4 beads have a Tyr at X7, a negative-charged amino acid at X4, hydrophobic amino acids at X1, X6 and X8 (3 out 4 have Val at X6 and Tyr at X8). Three out four beads have a positive-charged amino acid at X2 position. To discover GESIs for PKA, we will include the known PKA substrate motif (RRX[S/T]; SEQ ID NO:223) into the OBOC libraries. In some libraries, the known kinase substrate motifs will be placed between two stretches of random residues. In some cases, we have found increased (instead of decrease) fluorescence after dephosphorylation. These peptides are potential leads for developing phosphatase sensors.

## DSDSWGEYFHEE (synthetic genetically encoded small illuminant (GESI) malachite green (MG) binding Peptide 4)
[1]
  MG binding: ++
  MG binding of phosphorylated form (in words): bound MG

## DRDGDGDHRKIE (synthetic genetically encoded small illuminant (GESI) malachite green (MG) binding Peptide 3)
[1]
  MG binding: +++

## CGNTEPC (synthetic genetically encoded small illuminant (GESI) peptide of bead #6)
[2]; listed as # 6
  Dye binding: Malachite green
[2]; listed as #6
  Dye binding: only bind to malachite green; also recorded: bind only to malachite green

## 5C (CDTYI[pY]GSFKVNPDC; disulfide 1-15 (inferred)) [Peptide 5C]
[1]
  MG binding: +++

## 1C (CDDYI[pY]GSFKPYIAC; disulfide 1-15 (inferred)) [Peptide 1C]
[1]
  MG binding: ++++

## CQPDLTC (not fully specified (bridges); cysteine pairing not given here; also: bead-bound) [Bead #3]
[2]; listed as # 3
  Dye binding: Malachite green
[2]; listed as #3
  Dye binding: only bind to malachite green; also recorded: bind only to malachite green

## 2C (CDVYI[pY]GSFKNDYIC; disulfide 1-15 (inferred)) [Peptide 2C]
[1]
  MG binding: ++++

## CMTQEAC (synthetic genetically encoded small illuminant (GESI) peptide of bead #8)
[2]; listed as # 8
  Dye binding: Malachite green
[2]; listed as #8
  Dye binding: only bind to malachite green; also recorded: bind only to malachite green

## DFMRQGVYDIPE (synthetic genetically encoded small illuminant (GESI) malachite green (MG) binding Peptide 5)
[1]
  MG binding: ++
  MG binding of phosphorylated form (in words): bound MG

## 3C (CDNYI[pY]GSFKNPWEWC; disulfide 1-16 (inferred)) [Peptide 3C]
[1]
  MG binding: ++++

## DWWDWGNHGYTE [Peptide 12]
[3]
  Binding characteristics in solution studies: strong binding characteristics
[3]; binding to MG, read-out: binding affinity
  pKd: 9.39
[3]; peptide in solution, 2 mM Ca2+, one-site specific binding, read-out: Kd
  pKd: ~9.39

## EAIY(P)AAPFAKKYYVSERKW (EAI[pY]AAPFAKKYYVSERKW) [LLT3]
[4]
  Post-dephos fluorescent signal: 63 relative arbitrary level
  Pre-dephos fluorescent signal: 835 relative arbitrary level
  ΔF/F: 12

## 3-P (DNYIYGSFKPWEWC; synthetic genetically encoded small illuminant (GESI) malachite green (MG) binding peptide 3-P from linear library L-1)
[1]
  MG binding: ++

## EAIY(P)AAPFAKKYYVYDMHI (EAI[pY]AAPFAKKYYVYDMHI) [LLT1]
[4]
  Post-dephos fluorescent signal: 72 relative arbitrary level
  Pre-dephos fluorescent signal: 939 relative arbitrary level
  ΔF/F: 12

## EAIY(P)AAPFAKKLYIMDGWF (EAI[pY]AAPFAKKLYIMDGWF) [LLT4]
[4]
  Post-dephos fluorescent signal: 93 relative arbitrary level
  Pre-dephos fluorescent signal: 1930 relative arbitrary level
  ΔF/F: 19

## CEIHRIC (synthetic genetically encoded small illuminant (GESI) peptide of bead #9)
[2]; listed as # 9
  Dye binding: Bromocresol
[2]; listed as #9
  Dye binding: only bind to bromocresol purple; also recorded: bind only to bromocresol purple

## CLSDEFC (not fully specified (bridges); cysteine pairing not given here; also: bead-bound) [Bead #11]
[2]; listed as # 11
  Dye binding: Malachite green
[2]; listed as #11
  Dye binding: only bind to malachite green; also recorded: bind only to malachite green

## CYKWWVC (synthetic genetically encoded small illuminant (GESI) peptide of bead #7)
[2]; listed as #7
  Dye binding: bind to both indigo carmine and bromocresol purple

## DILDDGDEIQGE (synthetic genetically encoded small illuminant (GESI) malachite green (MG) binding Peptide 1)
[1]
  MG binding: +
  MG binding of phosphorylated form (in words): bound MG

## 4C (CDVYI[pY]GSFKYWPAC; disulfide 1-15 (inferred)) [Peptide 4C]
[1]
  MG binding: ++++

## CLMNKWC (not fully specified (bridges); cysteine pairing not given here; also: bead-bound) [Bead #2]
[2]; listed as #2
  Dye binding: bind to both indigo carmine and bromocresol purple

## CHPLLPC (not fully specified (bridges); cysteine pairing not given here; also: bead-bound) [Bead #5]
[2]; listed as # 5
  Dye binding: Bromocresol
[2]; listed as #5
  Dye binding: only bind to bromocresol purple; also recorded: bind only to bromocresol purple

## EAIY(P)AAPFAKKYYVQDSRA (EAI[pY]AAPFAKKYYVQDSRA) [LLT2]
[4]
  Post-dephos fluorescent signal: 44 relative arbitrary level
  Pre-dephos fluorescent signal: 575 relative arbitrary level
  ΔF/F: 12
